One data set addresses T1, rat GlyT2 (Rattus norvegicus, UniProt P58295).
T1 sequence (P58295 1-799): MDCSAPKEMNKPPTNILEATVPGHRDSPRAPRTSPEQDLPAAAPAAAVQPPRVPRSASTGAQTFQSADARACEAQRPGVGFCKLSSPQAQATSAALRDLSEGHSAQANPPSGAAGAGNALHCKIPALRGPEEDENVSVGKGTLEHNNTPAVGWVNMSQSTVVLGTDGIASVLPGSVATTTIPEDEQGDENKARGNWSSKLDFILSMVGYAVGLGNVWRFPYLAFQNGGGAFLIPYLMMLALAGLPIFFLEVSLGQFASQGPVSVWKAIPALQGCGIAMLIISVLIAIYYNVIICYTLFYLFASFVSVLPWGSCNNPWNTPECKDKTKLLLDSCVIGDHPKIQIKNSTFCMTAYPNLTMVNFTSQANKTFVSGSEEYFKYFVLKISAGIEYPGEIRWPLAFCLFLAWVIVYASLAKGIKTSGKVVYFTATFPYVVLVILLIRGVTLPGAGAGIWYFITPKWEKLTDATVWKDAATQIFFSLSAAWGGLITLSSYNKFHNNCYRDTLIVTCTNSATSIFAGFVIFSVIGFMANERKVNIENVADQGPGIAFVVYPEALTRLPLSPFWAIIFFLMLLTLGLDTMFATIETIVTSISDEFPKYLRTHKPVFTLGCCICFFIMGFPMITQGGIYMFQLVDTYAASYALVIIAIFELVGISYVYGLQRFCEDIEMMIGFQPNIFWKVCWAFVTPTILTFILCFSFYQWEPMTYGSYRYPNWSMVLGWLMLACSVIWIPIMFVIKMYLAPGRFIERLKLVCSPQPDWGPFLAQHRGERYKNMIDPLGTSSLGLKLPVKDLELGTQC
Particulars: Liu et al. 1993, cited from earlier work.

For data set [1], the target named is T2, hGlyT2 transporter (full-length) (Homo sapiens, UniProt Q9Y345, G24S/N188D/Q362L/R74W/S155G/T582S/V431A).
T2 sequence (Q9Y345 1-797 G24S/R74W/S155G/N188D/Q362L/V431A/T582S): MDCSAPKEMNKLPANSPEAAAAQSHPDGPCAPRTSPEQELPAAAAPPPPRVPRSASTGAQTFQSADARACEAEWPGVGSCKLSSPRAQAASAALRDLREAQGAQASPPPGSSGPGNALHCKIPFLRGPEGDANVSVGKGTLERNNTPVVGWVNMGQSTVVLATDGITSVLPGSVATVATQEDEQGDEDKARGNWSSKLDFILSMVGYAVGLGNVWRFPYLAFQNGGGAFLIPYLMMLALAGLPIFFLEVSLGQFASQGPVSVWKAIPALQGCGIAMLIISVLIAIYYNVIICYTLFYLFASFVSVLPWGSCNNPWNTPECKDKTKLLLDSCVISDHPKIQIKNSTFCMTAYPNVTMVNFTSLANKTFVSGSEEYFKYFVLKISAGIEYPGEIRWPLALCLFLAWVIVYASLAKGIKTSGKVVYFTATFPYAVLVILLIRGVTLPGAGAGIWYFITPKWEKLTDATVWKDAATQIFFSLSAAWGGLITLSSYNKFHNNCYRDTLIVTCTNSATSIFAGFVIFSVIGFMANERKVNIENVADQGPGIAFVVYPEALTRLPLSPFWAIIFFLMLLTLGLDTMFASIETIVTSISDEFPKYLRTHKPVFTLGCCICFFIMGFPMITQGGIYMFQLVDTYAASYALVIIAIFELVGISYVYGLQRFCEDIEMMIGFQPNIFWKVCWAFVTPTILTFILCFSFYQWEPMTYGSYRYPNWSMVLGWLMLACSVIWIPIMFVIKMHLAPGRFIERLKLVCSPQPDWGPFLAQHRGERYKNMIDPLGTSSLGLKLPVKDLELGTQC
The settings on record: full-length hGlyT2, COS-7 cells.

Data set [2] has as its target T3, truncated hGlyT2 (start at Met-154, lacking the first 153 amino acids) (Homo sapiens, UniProt Q9Y345, N188D/Q362L/S155G/T582S/V431A).
T3 sequence (Q9Y345 154-797 S155G/N188D/Q362L/V431A/T582S): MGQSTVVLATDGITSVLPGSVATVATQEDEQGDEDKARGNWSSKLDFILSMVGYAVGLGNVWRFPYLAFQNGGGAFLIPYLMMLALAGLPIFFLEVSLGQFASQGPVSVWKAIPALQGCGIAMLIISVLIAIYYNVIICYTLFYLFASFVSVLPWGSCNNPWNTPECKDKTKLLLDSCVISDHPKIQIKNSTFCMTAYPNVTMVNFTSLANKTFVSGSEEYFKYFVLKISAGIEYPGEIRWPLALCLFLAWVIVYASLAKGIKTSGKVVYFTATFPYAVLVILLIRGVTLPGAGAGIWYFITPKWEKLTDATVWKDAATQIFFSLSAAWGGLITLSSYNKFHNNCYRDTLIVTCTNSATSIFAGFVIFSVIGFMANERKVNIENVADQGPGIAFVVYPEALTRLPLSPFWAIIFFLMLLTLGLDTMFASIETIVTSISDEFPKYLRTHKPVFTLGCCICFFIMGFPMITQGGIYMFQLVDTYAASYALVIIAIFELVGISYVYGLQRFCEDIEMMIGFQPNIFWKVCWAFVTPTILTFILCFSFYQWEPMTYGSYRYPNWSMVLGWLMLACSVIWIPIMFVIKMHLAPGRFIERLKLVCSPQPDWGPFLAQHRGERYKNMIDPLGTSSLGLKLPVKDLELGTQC
Particulars: truncated hGlyT2, COS-7 cells.

For a further data set, the target named is T4, GlyT1 (Homo sapiens, UniProt P48067).
T4 sequence (P48067 1-706): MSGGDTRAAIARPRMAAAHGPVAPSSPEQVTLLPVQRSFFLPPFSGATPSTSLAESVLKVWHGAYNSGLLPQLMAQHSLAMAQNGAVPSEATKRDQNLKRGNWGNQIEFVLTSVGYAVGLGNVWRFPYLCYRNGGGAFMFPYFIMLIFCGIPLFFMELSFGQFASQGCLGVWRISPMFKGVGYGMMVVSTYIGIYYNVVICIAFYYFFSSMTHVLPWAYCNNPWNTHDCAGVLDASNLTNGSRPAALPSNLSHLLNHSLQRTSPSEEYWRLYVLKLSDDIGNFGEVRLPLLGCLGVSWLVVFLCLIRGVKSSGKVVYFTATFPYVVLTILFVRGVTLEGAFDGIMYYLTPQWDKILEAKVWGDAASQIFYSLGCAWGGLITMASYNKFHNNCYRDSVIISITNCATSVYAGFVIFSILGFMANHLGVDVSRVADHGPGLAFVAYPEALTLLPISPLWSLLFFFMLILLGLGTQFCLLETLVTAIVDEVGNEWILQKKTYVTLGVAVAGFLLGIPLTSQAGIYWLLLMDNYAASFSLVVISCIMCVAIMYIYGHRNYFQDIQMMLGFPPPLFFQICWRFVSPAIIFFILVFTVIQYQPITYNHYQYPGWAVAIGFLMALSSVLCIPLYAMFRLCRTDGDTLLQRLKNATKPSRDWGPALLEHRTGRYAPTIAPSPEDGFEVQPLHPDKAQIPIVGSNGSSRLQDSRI
Particulars: sarcosine concentration exceeds 200 μM; cited from earlier work.

Substrate in data set [3]: NCC(=O)O
The data set is described as follows: cells, lysate or membranes. The settings on record: pH 7.4.

Setting [4] is: 1 mM sarcosine, 15 min pretreatment.

What is called Km is the substrate concentration at which the rate is half of its maximum.

Turning to `NCC(=O)O` [glycine], the Km on rat GlyT2 (read-out: Km reported for rat GlyT2) is 13 µM. For the same molecule, the “Vmax of glycine uptake (Eadie-Hofstee)” value in data set [1] was 190±3 pmol glycine/mg protein/min. Moreover, the “Vmax of glycine uptake” value in data set [2] is on record as 67±3 pmol glycine/mg protein/min.

In the case of `CNCC(=O)O` [sarcosine], the “inhibition of rat GlyT2-mediated glycine uptake” value at rat GlyT2 (sarcosine 1 mM) is recorded as 10-20%. For the same molecule, the “reduction of glycine uptake” value in data set [1] (setting [4]) and in data set [2] (setting [4]) was “less than 15%” each time. Besides, the “effect of increasing concentrations of sarcosine on glycine uptake (FIG. 5)” value in data set [1] and in data set [2] was “insensitive to sarcosine inhibition” in each case. Besides, the “inhibition of GlyT1-mediated glycine uptake” value on GlyT1 is given as “almost completely inhibited”.

B1: truncated hGlyT2 (start at Met-154, lacking the first 153 amino acids) (Homo sapiens; N188D/Q362L/S155G/T582S/V431A) (protein)
chain: MGQSTVVLATDGITSVLPGSVATVATQEDEQGDEDKARGNWSSKLDFILSMVGYAVGLGNVWRFPYLAFQNGGGAFLIPYLMMLALAGLPIFFLEVSLGQFASQGPVSVWKAIPALQGCGIAMLIISVLIAIYYNVIICYTLFYLFASFVSVLPWGSCNNPWNTPECKDKTKLLLDSCVISDHPKIQIKNSTFCMTAYPNVTMVNFTSLANKTFVSGSEEYFKYFVLKISAGIEYPGEIRWPLALCLFLAWVIVYASLAKGIKTSGKVVYFTATFPYAVLVILLIRGVTLPGAGAGIWYFITPKWEKLTDATVWKDAATQIFFSLSAAWGGLITLSSYNKFHNNCYRDTLIVTCTNSATSIFAGFVIFSVIGFMANERKVNIENVADQGPGIAFVVYPEALTRLPLSPFWAIIFFLMLLTLGLDTMFASIETIVTSISDEFPKYLRTHKPVFTLGCCICFFIMGFPMITQGGIYMFQLVDTYAASYALVIIAIFELVGISYVYGLQRFCEDIEMMIGFQPNIFWKVCWAFVTPTILTFILCFSFYQWEPMTYGSYRYPNWSMVLGWLMLACSVIWIPIMFVIKMHLAPGRFIERLKLVCSPQPDWGPFLAQHRGERYKNMIDPLGTSSLGLKLPVKDLELGTQC
For B1, the Km in data set [3] (other: truncated hGlyT2, COS-7 cells, 37.0 °C) was found to be 9 ± 1 µM.

B2: hGlyT2 transporter (full-length) (Homo sapiens; G24S/N188D/Q362L/R74W/S155G/T582S/V431A) (protein)
chain: MDCSAPKEMNKLPANSPEAAAAQSHPDGPCAPRTSPEQELPAAAAPPPPRVPRSASTGAQTFQSADARACEAEWPGVGSCKLSSPRAQAASAALRDLREAQGAQASPPPGSSGPGNALHCKIPFLRGPEGDANVSVGKGTLERNNTPVVGWVNMGQSTVVLATDGITSVLPGSVATVATQEDEQGDEDKARGNWSSKLDFILSMVGYAVGLGNVWRFPYLAFQNGGGAFLIPYLMMLALAGLPIFFLEVSLGQFASQGPVSVWKAIPALQGCGIAMLIISVLIAIYYNVIICYTLFYLFASFVSVLPWGSCNNPWNTPECKDKTKLLLDSCVISDHPKIQIKNSTFCMTAYPNVTMVNFTSLANKTFVSGSEEYFKYFVLKISAGIEYPGEIRWPLALCLFLAWVIVYASLAKGIKTSGKVVYFTATFPYAVLVILLIRGVTLPGAGAGIWYFITPKWEKLTDATVWKDAATQIFFSLSAAWGGLITLSSYNKFHNNCYRDTLIVTCTNSATSIFAGFVIFSVIGFMANERKVNIENVADQGPGIAFVVYPEALTRLPLSPFWAIIFFLMLLTLGLDTMFASIETIVTSISDEFPKYLRTHKPVFTLGCCICFFIMGFPMITQGGIYMFQLVDTYAASYALVIIAIFELVGISYVYGLQRFCEDIEMMIGFQPNIFWKVCWAFVTPTILTFILCFSFYQWEPMTYGSYRYPNWSMVLGWLMLACSVIWIPIMFVIKMHLAPGRFIERLKLVCSPQPDWGPFLAQHRGERYKNMIDPLGTSSLGLKLPVKDLELGTQC
Regarding B2, the Km in data set [3] (other: full-length hGlyT2, COS-7 cells, 15 min at 37° C.) is 10 ± 0.4 µM.

The values above are taken from patent US6416975B1 (Gliatech, Inc., priority 1998, dated 2002).
